Here are results for two compounds from patent US7459282B2, “Use of c-Jun or c-Jun activating agents such as UV or c-Jun N-terminal kinases (JNKs) for treating cancer” (Biotech Research Ventures Pte Limited, priority 2001, dated 2008).

Assay [1] deals with p73. The experiment in a line: Western blot of p73 in MCF-7-p73 cells after proteosome inhibitor. It is filed as cell-based, human. As to conditions: proteosome inhibitor for 3 hours. Here is the method:
FIG. 4. c-Jun is required for UV-mediated p73 stabilization. (a) MCF-7 cells stably transfected with p73 and parental MCF-7 cells were treated with the proteosome inhibitor for 3 hours or UV irradiated (50 J/m^2) and cell extracts were analyzed 2 hours post-irradiation by Western blotting as described in FIG. 1. (b) c-Jun^−/− and c-Jun^−/−+c-Jun mouse embryonic fibroblasts were transfected with the indicated plasmids and were untreated or UVC irradiated (40 J/m^2) or gamma-irradiation (10Gy) 24 hours post-transfection. 24 hours after irradiation, cell extracts were prepared and analyzed for p73 protein levels by Western blotting.
To analyze if c-Jun provides the stabilization signal, the inventors generated MCF-7 breast carcinoma cells stably expressing p73 (MCF-7-p73 cells), which would thus provide a detectable level of basal p73 expression. The overexpressed p73 was expressed in these cells (FIG. 4a). […] However, when these cells were treated with UV irradiation, which is a potent inducer of c-Jun but not p73 (Jost C A. et al, p73 is a simian [correction of human] p53-related protein that can induce apoptosis, Nature, 1997, Sep. 11; 389(6647):191-4.), p73 expression was detected as early as 2 hours post-irradiation, in contrast to the parental MCF-7 cells (FIG. 4a).
(Immunoblotting shows a protein as a band on a membrane.)

Assay [2] deals with p73. Put plainly: Western blot of endogenous p73 levels in fibroblasts after cisplatin. The arrangement: levels of p73 protein: dose or concentration left out as unconfirmed. It is filed as cell-based, mouse. Here is the method:
FIG. 1. […] These extracts were analysed by Western blotting for the expression of p73 and phosphorylated c-Jun using specific antibodies.
FIG. 2. c-Jun is necessary for cisplatin-induced p73 expression and apoptosis. […] (b) Extracts from cells described in (a) were analyzed for endogenous p73 levels by Western blotting.
Although p73 is a structural and functional homologue of the p53 tumour suppressor protein, p73 is only activated by a subset of agents that activate p53. […] The inventors have thus investigated the molecular mechanism(s) by which p73 activity is regulated. […] The increase in p73 levels in cisplatin-treated cells correlates with the phosphorylation of the proto-oncogene product, c-Jun (FIG. 1). Phosphorylated c-Jun was not detected upon gamma-irradiation of cells (FIG. 1).

The subject of assay [3] is p73. Put plainly: Egfp reporter screen for p73 activation in H1299-p53RE cells. It is filed as cell-based, human. As to conditions: p53-null H1299 reporter cells. The source says:
The screen utilises a p53 null cell line, H1299, which is a human lung cancer cell line. In these cells, p53 is not active as the gene is deleted. The inventors have transfected a plasmid containing the p53/p73 binding DNA sequences (or responsive element) driving the enhanced green fluorescent protein gene (Egfp) as a reporter (FIG. 8). Generally, the reporter would be turned “on” when p53 or its homologues bind to the responsive element. […] However, when the cells are exposed to compounds that activate p73, which is normally present in a dormant state in these cells, then these cells would fluoresce and would be visible as green cells under the fluorescence microscope.
It is important to note that all the cells in the population expressed Egfp, implying that the cell-system generated is homogenous and results in a 100% response.

SMILES strings stand for the structures. Square brackets hold non-standard residues; d marks the D form. Peptide text beside a SMILES is read from it. Nle = CCCC[C@H](N)C(=O)O

In the case of `CCCC[C@@H](C=O)NC(=O)[C@H](CC(C)C)NC(=O)[C@H](CC(C)C)NC(C)=O` [ALLN] (Ac-Leu-Leu-[Nle]-aldehyde), the “expression of p73 protein” value with p73 [1] is recorded as “did not result in the increased expression of p73 protein”.
For `N.N.[Cl][Pt][Cl]` [cisplatin], the p73 protein induction entry is given as “severely compromised” with p73 [2] (absence of c-Abl, cisplatin); “abrogated the induction of p73” with p73 [2] (c-Jun-/- cells, cisplatin 25 μM, 24 hours); “induced significantly” in the assay with p73 [2] (jun-/-+c-Jun cells, cisplatin 25 μM, 24 hours). The “levels of p73 protein” value in the assay with p73 [2] (wild-type mouse embryonic fibroblasts, cisplatin (FIG. 1), 24 hours post-treatment) was “increase in the levels of p73 protein”. Also, the “response of the cell population (cells expressing Egfp)” value in the assay with p73 [3] (cisplatin treated) stood at 100%. For the same compound, the “expression of Egfp (endogenous p73 activity)” value in the assay with p73 [3] (flow cytometer) is “expression of Egfp in all the cells”.
